Experimental data reported in PubChem BioAssay (NCI).
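How tested: cells in 96-well plates exposed to compound for 48 hours at five concentrations. At the GI50, growth is halved. At the TGI there is no net growth.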

Columns and labels:
Assay in all cases: NCI anticancer screen, dose series, 48 h
OVCAR-5 ovarian = test system: OVCAR-5 ovarian
MDA-MB-231 breast = test system: MDA-MB-231 breast
OVCAR-3 ovarian = test system: OVCAR-3 ovarian
MALME-3M melanoma = test system: MALME-3M melanoma
ACHN renal = test system: ACHN renal
KM12 colon = test system: KM12 colon
OVCAR-8 ovarian = test system: OVCAR-8 ovarian
RPMI-8226 leukemia = test system: RPMI-8226 leukemia
SR leukemia = test system: SR leukemia
MOLT-4 leukemia = test system: MOLT-4 leukemia
SNB-19 CNS = test system: SNB-19 CNS
HOP-62 NSCLC = test system: HOP-62 NSCLC
SK-OV-3 ovarian = test system: SK-OV-3 ovarian
T-47D breast = test system: T-47D breast
UO-31 renal = test system: UO-31 renal
NCI/ADR-RES ovarian = test system: NCI/ADR-RES ovarian
SW-620 colon = test system: SW-620 colon
CAKI-1 renal = test system: CAKI-1 renal
UACC-257 melanoma = test system: UACC-257 melanoma
SF-268 CNS = test system: SF-268 CNS
HCT-116 colon = test system: HCT-116 colon
NCI-H226 lung = test system: NCI-H226 lung
HL-60(TB) leukemia = test system: HL-60(TB) leukemia
LOX IMVI melanoma = test system: LOX IMVI melanoma
MCF7 breast = test system: MCF7 breast
M14 melanoma = test system: M14 melanoma
SK-MEL-2 melanoma = test system: SK-MEL-2 melanoma
HCT-15 colon = test system: HCT-15 colon
BT-549 breast = test system: BT-549 breast
786-0 renal = test system: 786-0 renal
SK-MEL-5 melanoma = test system: SK-MEL-5 melanoma
MDA-MB-435 = test system: MDA-MB-435
U251 CNS = test system: U251 CNS
EKVX NSCLC = test system: EKVX NSCLC
RXF 393 renal = test system: RXF 393 renal
HS 578T breast = test system: HS 578T breast
COLO 205 colon = test system: COLO 205 colon
SN12C renal = test system: SN12C renal
MDA-MB-468 breast = test system: MDA-MB-468 breast
NCI-H522 lung = test system: NCI-H522 lung
K-562 leukemia = test system: K-562 leukemia
SF-295 CNS = test system: SF-295 CNS
SK-MEL-28 melanoma = test system: SK-MEL-28 melanoma
IGROV1 ovarian = test system: IGROV1 ovarian
TK-10 renal = test system: TK-10 renal
SF-539 CNS = test system: SF-539 CNS
HCC-2998 colon = test system: HCC-2998 colon
CCRF-CEM leukemia = test system: CCRF-CEM leukemia
UACC-62 melanoma = test system: UACC-62 melanoma
NCI-H23 lung = test system: NCI-H23 lung
PC-3 prostate = test system: PC-3 prostate
A498 renal = test system: A498 renal
OVCAR-4 ovarian = test system: OVCAR-4 ovarian
DU-145 prostate = test system: DU-145 prostate
NCI-H460 lung = test system: NCI-H460 lung
HOP-92 NSCLC = test system: HOP-92 NSCLC
A549 NSCLC = test system: A549 NSCLC
SNB-75 CNS = test system: SNB-75 CNS

`O=C(COc1ccc(NC(=O)Nc2ccccc2)cc1)N=Nc1c(O)[nH]c2ccc([N+](=O)[O-])cc12` was tested, and the GI50 (OVCAR-5 ovarian) was 4.11 µM, the TGI (OVCAR-5 ovarian) was > 100 µM and the GI50 (MDA-MB-231 breast) was 1.82 µM. For the same molecule, the TGI (MDA-MB-231 breast) was 3.41 µM, the GI50 (OVCAR-3 ovarian) was 1.66 µM and the TGI (OVCAR-3 ovarian) was 3.18 µM. The GI50 (MALME-3M melanoma) was 1.63 µM, the TGI (MALME-3M melanoma) was 3.07 µM and the GI50 (ACHN renal) was 29.3 µM. The TGI (ACHN renal) was > 100 µM, the GI50 (KM12 colon) was 1.95 µM and the TGI (KM12 colon) was 3.96 µM. The GI50 (OVCAR-8 ovarian) was 1.89 µM, the TGI (OVCAR-8 ovarian) was 3.75 µM and the GI50 (RPMI-8226 leukemia) was 5.39 µM. For the same molecule, the TGI (RPMI-8226 leukemia) was > 100 µM, the GI50 (SR leukemia) was 2.65 µM and the TGI (SR leukemia) was 6.32 µM. The GI50 (MOLT-4 leukemia) was 2.37 µM, the TGI (MOLT-4 leukemia) was 5.08 µM and the GI50 (SNB-19 CNS) was 1.98 µM. The TGI (SNB-19 CNS) was 4.55 µM, the GI50 (HOP-62 NSCLC) was 2.42 µM and the TGI (HOP-62 NSCLC) was 7.08 µM. The GI50 (SK-OV-3 ovarian) was 5.45 µM, the TGI (SK-OV-3 ovarian) was 21 µM and the GI50 (T-47D breast) was 1.71 µM. The TGI (T-47D breast) was 3.6 µM, the GI50 (UO-31 renal) was > 100 µM and the TGI (UO-31 renal) was > 100 µM. The GI50 (NCI/ADR-RES ovarian) was > 100 µM, the TGI (NCI/ADR-RES ovarian) was > 100 µM and the GI50 (SW-620 colon) was 1.69 µM. For the same molecule, the TGI (SW-620 colon) was 3.83 µM, the GI50 (CAKI-1 renal) was 47.7 µM and the TGI (CAKI-1 renal) was > 100 µM. For the same molecule, the GI50 (UACC-257 melanoma) was 2.01 µM, the TGI (UACC-257 melanoma) was 4.91 µM and the GI50 (SF-268 CNS) was 1.91 µM. For the same molecule, the TGI (SF-268 CNS) was 4.08 µM, the GI50 (HCT-116 colon) was 1.72 µM and the TGI (HCT-116 colon) was 3.13 µM. For the same molecule, the GI50 (NCI-H226 lung) was 2.31 µM, the TGI (NCI-H226 lung) was 5.94 µM and the GI50 (HL-60(TB) leukemia) was 8.08 µM. For the same molecule, the TGI (HL-60(TB) leukemia) was > 100 µM, the GI50 (LOX IMVI melanoma) was 1.7 µM and the TGI (LOX IMVI melanoma) was 3.15 µM. The GI50 (MCF7 breast) was 1.94 µM, the TGI (MCF7 breast) was 4.02 µM and the GI50 (M14 melanoma) was 2.86 µM. It also gave a TGI (M14 melanoma) of 11.3 µM, a GI50 (SK-MEL-2 melanoma) of 1.76 µM and a TGI (SK-MEL-2 melanoma) of 3.46 µM. The GI50 (HCT-15 colon) was 99.8 µM, the TGI (HCT-15 colon) was > 100 µM and the GI50 (BT-549 breast) was 1.89 µM. For the same molecule, the TGI (BT-549 breast) was 5.37 µM, the GI50 (786-0 renal) was 5.69 µM and the TGI (786-0 renal) was 23.8 µM. For the same molecule, the GI50 (SK-MEL-5 melanoma) was 2.15 µM, the TGI (SK-MEL-5 melanoma) was 5.09 µM and the GI50 (MDA-MB-435) was 1.71 µM. For the same molecule, the TGI (MDA-MB-435) was 3.26 µM, the GI50 (U251 CNS) was 1.71 µM and the TGI (U251 CNS) was 3.12 µM. It also gave a GI50 (EKVX NSCLC) of 5.02 µM, a TGI (EKVX NSCLC) of 45.7 µM and a GI50 (RXF 393 renal) of 2.31 µM. It also gave a TGI (RXF 393 renal) of 6.01 µM, a GI50 (HS 578T breast) of 2.09 µM and a TGI (HS 578T breast) of 5.8 µM. For the same molecule, the GI50 (COLO 205 colon) was 1.94 µM, the TGI (COLO 205 colon) was 3.55 µM and the GI50 (SN12C renal) was 1.65 µM. The TGI (SN12C renal) was 3.3 µM, the GI50 (MDA-MB-468 breast) was 1.85 µM and the TGI (MDA-MB-468 breast) was 3.31 µM. For the same molecule, the GI50 (NCI-H522 lung) was 1.61 µM, the TGI (NCI-H522 lung) was 3.15 µM and the GI50 (K-562 leukemia) was 3.02 µM. The TGI (K-562 leukemia) was 7.65 µM, the GI50 (SF-295 CNS) was 6.27 µM and the TGI (SF-295 CNS) was 32.8 µM. It also gave a GI50 (SK-MEL-28 melanoma) of 1.79 µM, a TGI (SK-MEL-28 melanoma) of 3.65 µM and a GI50 (IGROV1 ovarian) of 3.43 µM. The TGI (IGROV1 ovarian) was 15.5 µM, the GI50 (TK-10 renal) was 17.3 µM and the TGI (TK-10 renal) was 38.4 µM. For the same molecule, the GI50 (SF-539 CNS) was 1.67 µM, the TGI (SF-539 CNS) was 3.14 µM and the GI50 (HCC-2998 colon) was 2.24 µM. It also gave a TGI (HCC-2998 colon) of 5.15 µM, a GI50 (CCRF-CEM leukemia) of 2.45 µM and a TGI (CCRF-CEM leukemia) of 6.17 µM. For the same molecule, the GI50 (UACC-62 melanoma) was 1.83 µM, the TGI (UACC-62 melanoma) was 3.92 µM and the GI50 (NCI-H23 lung) was 2.09 µM. It also gave a TGI (NCI-H23 lung) of 4.27 µM, a GI50 (PC-3 prostate) of 2.05 µM and a TGI (PC-3 prostate) of 4.76 µM. It also gave a GI50 (A498 renal) of 11.4 µM, a TGI (A498 renal) of 32.5 µM and a GI50 (OVCAR-4 ovarian) of 1.84 µM. For the same molecule, the TGI (OVCAR-4 ovarian) was 3.96 µM, the GI50 (DU-145 prostate) was 3.88 µM and the TGI (DU-145 prostate) was > 100 µM. It also gave a GI50 (NCI-H460 lung) of 1.89 µM, a TGI (NCI-H460 lung) of 4.58 µM and a GI50 (HOP-92 NSCLC) of 1.76 µM. For the same molecule, the TGI (HOP-92 NSCLC) was 3.39 µM, the GI50 (A549 NSCLC) was > 100 µM and the TGI (A549 NSCLC) was > 100 µM. The GI50 (SNB-75 CNS) was 1.46 µM and the TGI (SNB-75 CNS) was 3.39 µM.
`CCN(CC)CCCC(C)N/C(=C1\C(=O)NC(=O)\C1=C(/NC(C)CCCN(CC)CC)c1cccc(OC)c1)c1cccc(OC)c1` (stereo not drawn) was tested, and the GI50 (MDA-MB-468 breast) was 0.762 µM and the TGI (MDA-MB-468 breast) was 1.75 µM.
